From US4396613A, “23-Ester derivatives of DMT and method of using same” (Eli Lilly and Company, priority 1981, dated 1983)
≈ marks a conversion by molar mass, not a printed value.

Legend:
Format in all cases: cell-based
[1] = test system: Staphylococcus aureus X400; test: standard agar-dilution assay (MIC); settings: Staphylococcus aureus X400, methicillin-resistant strain, unit assumed
Protocol: (§1) The MIC's in Table II were determined by standard agar-dilution assays. The MIC's in Table III were obtained using a conventional broth-dilution microtiter test.
^c Methicillinresistant-strain

[2] = test system: Streptococcus pneumoniae Park I; settings: agar dilution, unit assumed
Protocol: as §1

[3] = test system: Staphylococcus aureus V41; test: standard agar-dilution assay (MIC); settings: Staphylococcus aureus V41, penicillin-resistant strain, unit assumed
Protocol: as §1
^b Penicillinresistant strain

[4] = test system: Pasteurella multocida 17E; test: conventional broth-dilution microtiter test (MIC); settings: bovine isolate, unit assumed
Protocol: as §1

[5] = test system: Pasteurella multocida 60A; test: conventional broth-dilution microtiter test (MIC); settings: avian isolate, unit assumed
Protocol: as §1

Mycoplasma hyorhinis = test: conventional broth-dilution microtiter test (MIC); settings: unit assumed
Protocol: as §1

Staphylococcus aureus = test: conventional broth-dilution microtiter test (MIC); settings: unit assumed
Protocol: as §1

Mycoplasma gallisepticum = test: conventional broth-dilution microtiter test (MIC); settings: unit assumed
Protocol: as §1

Streptococcus sp. 80 = test: conventional broth-dilution microtiter test (MIC); settings: unit assumed
Protocol: as §1

[6] = test system: Streptococcus pyogenes C203; test: standard agar-dilution assay (MIC); settings: unit assumed
Protocol: as §1

[7] = test system: Streptococcus Group D X66; test: standard agar-dilution assay (MIC); settings: unit assumed
Protocol: as §1

[8] = test system: Staphylococcus aureus S13E; test: standard agar-dilution assay (MIC); settings: unit assumed
Protocol: as §1

[9] = test system: Staphylococcus aureus X1.1; test: standard agar-dilution assay (MIC); settings: unit assumed
Protocol: as §1

[10] = test system: Haemophilus influenzae R252; test: standard agar-dilution assay (MIC); settings: Haemophilus influenzae R252, ampicillin-resistant strain, unit assumed
Protocol: as §1

Streptococcus Group 9960 = test: standard agar-dilution assay (MIC); settings: unit assumed
Protocol: as §1

[11] = test system: Haemophilus influenzae Holt; test: standard agar-dilution assay (MIC); settings: ampicillin-sensitive strain, unit assumed
Protocol: as §1

[12] = test system: Staphylococcus epidermidis EPI2; test: standard agar-dilution assay (MIC); settings: unit assumed
Protocol: as §1

[13] = test system: Staphylococcus epidermidis EPI1; test: standard agar-dilution assay (MIC); settings: unit assumed
Protocol: as §1

Mycoplasma synoviae = test: conventional broth-dilution microtiter test (MIC); settings: unit assumed
Protocol: as §1

## CCC1OC(=O)CC(O)C(C)C(OC2OC(C)C(OC3CC(C)(O)C(O)C(C)O3)C(N(C)C)C2OC(C)=O)C(CC=O)CC(C)C(=O)C=CC(C)=CC1COC(=O)CCc1ccccc1 (stereo not shown) [Compound 13]
[1]
  MIC: 1 µg/mL (≈ 1.09 µM)
[2]
  MIC: 0.015 µg/mL (≈ 0.0164 µM)
[3]
  MIC: 1 µg/mL (≈ 1.09 µM)
[4]
  MIC: 1.56 µg/mL (≈ 1.7 µM)
[5]
  MIC: 12.5 µg/mL (≈ 13.6 µM)
Mycoplasma hyorhinis
  MIC: 3.12 µg/mL (≈ 3.41 µM)
Staphylococcus aureus
  MIC: 0.78 µg/mL (≈ 0.851 µM)
Mycoplasma gallisepticum
  MIC: ≤ 0.048 µg/mL
Streptococcus sp. 80
  MIC: ≤ 0.048 µg/mL
[6]
  MIC: 0.25 µg/mL (≈ 0.273 µM)
[7]
  MIC: 0.5 µg/mL (≈ 0.546 µM)
[8]
  MIC: 0.5 µg/mL (≈ 0.546 µM)
[9]
  MIC: 0.25 µg/mL (≈ 0.273 µM)
[10]
  MIC: 2 µg/mL (≈ 2.18 µM)
Streptococcus Group 9960
  MIC: 0.5 µg/mL (≈ 0.546 µM)
[11]
  MIC: 2 µg/mL (≈ 2.18 µM)
[12]
  MIC: 1 µg/mL (≈ 1.09 µM)
[13]
  MIC: 1 µg/mL (≈ 1.09 µM)

## CCC1OC(=O)CC(O)C(C)C(OC2OC(C)C(OC3CC(C)(O)C(O)C(C)O3)C(N(C)C)C2OC(C)=O)C(CC=O)CC(C)C(=O)C=CC(C)=CC1COC(=O)Cc1ccc(Cl)cc1 (stereo not shown) [Compound 14, 2'-O-Acetyl-23-O-(p-chlorophenylacetyl)-DMT]
[1]
  MIC: 2 µg/mL (≈ 2.14 µM)
[3]
  MIC: 2 µg/mL (≈ 2.14 µM)
[4]
  MIC: 3.12 µg/mL (≈ 3.33 µM)
[5]
  MIC: 6.25 µg/mL (≈ 6.67 µM)
Mycoplasma synoviae
  MIC: 0.78 µg/mL (≈ 0.833 µM)
Mycoplasma hyorhinis
  MIC: 6.25 µg/mL (≈ 6.67 µM)
Staphylococcus aureus
  MIC: 0.39 µg/mL (≈ 0.416 µM)
Mycoplasma gallisepticum
  MIC: < 0.048 µg/mL
Streptococcus sp. 80
  MIC: 0.78 µg/mL (≈ 0.833 µM)
[6]
  MIC: 0.5 µg/mL (≈ 0.534 µM)
[7]
  MIC: 1 µg/mL (≈ 1.07 µM)
[8]
  MIC: 1 µg/mL (≈ 1.07 µM)
[9]
  MIC: 0.5 µg/mL (≈ 0.534 µM)
[10]
  MIC: 4 µg/mL (≈ 4.27 µM)
Streptococcus Group 9960
  MIC: 1 µg/mL (≈ 1.07 µM)
[11]
  MIC: 4 µg/mL (≈ 4.27 µM)
[12]
  MIC: 2 µg/mL (≈ 2.14 µM)
[13]
  MIC: 1 µg/mL (≈ 1.07 µM)

## CCC1OC(=O)CC(O)C(C)C(OC2OC(C)C(OC3CC(C)(O)C(O)C(C)O3)C(N(C)C)C2OC(C)=O)C(CC=O)CC(C)C(=O)C=CC(C)=CC1COC(=O)Cc1ccc([N+](=O)[O-])cc1 (stereo not shown) [Compound 15, 2'-O-Acetyl-23-O-(p-nitrophenylacetyl)-DMT]
[1]
  MIC: 0.5 µg/mL (≈ 0.528 µM)
[3]
  MIC: 0.5 µg/mL (≈ 0.528 µM)
[4]
  MIC: 3.12 µg/mL (≈ 3.29 µM)
[5]
  MIC: 6.25 µg/mL (≈ 6.6 µM)
Mycoplasma synoviae
  MIC: < 0.05 µg/mL
Mycoplasma hyorhinis
  MIC: 0.78 µg/mL (≈ 0.824 µM)
Staphylococcus aureus
  MIC: 1.56 µg/mL (≈ 1.65 µM)
Mycoplasma gallisepticum
  MIC: 0.39 µg/mL (≈ 0.412 µM)
Streptococcus sp. 80
  MIC: 0.39 µg/mL (≈ 0.412 µM)
[6]
  MIC: 0.125 µg/mL (≈ 0.132 µM)
[7]
  MIC: 0.25 µg/mL (≈ 0.264 µM)
[8]
  MIC: 0.25 µg/mL (≈ 0.264 µM)
[9]
  MIC: 0.25 µg/mL (≈ 0.264 µM)
[10]
  MIC: 4 µg/mL (≈ 4.22 µM)
Streptococcus Group 9960
  MIC: 0.25 µg/mL (≈ 0.264 µM)
[11]
  MIC: 8 µg/mL (≈ 8.45 µM)
[12]
  MIC: 0.5 µg/mL (≈ 0.528 µM)
[13]
  MIC: 0.5 µg/mL (≈ 0.528 µM)

## CCC1OC(=O)CC(O)C(C)C(OC2OC(C)C(OC3CC(C)(O)C(O)C(C)O3)C(N(C)C)C2OC(C)=O)C(CC=O)CC(C)C(=O)C=CC(C)=CC1COC(=O)C(Cl)(Cl)Cl (stereo not shown) [Compound 16]
[1]
  MIC: 4 µg/mL (≈ 4.3 µM)
[2]
  MIC: 0.03 µg/mL (≈ 0.0323 µM)
[3]
  MIC: 2 µg/mL (≈ 2.15 µM)
[4]
  MIC: 6.25 µg/mL (≈ 6.73 µM)
[5]
  MIC: 12.5 µg/mL (≈ 13.5 µM)
Mycoplasma hyorhinis
  MIC: 3.12 µg/mL (≈ 3.36 µM)
Staphylococcus aureus
  MIC: 1.56 µg/mL (≈ 1.68 µM)
Mycoplasma gallisepticum
  MIC: 0.39 µg/mL (≈ 0.42 µM)
Streptococcus sp. 80
  MIC: 0.39 µg/mL (≈ 0.42 µM)
[6]
  MIC: 0.5 µg/mL (≈ 0.538 µM)
[7]
  MIC: 1 µg/mL (≈ 1.08 µM)
[8]
  MIC: 1 µg/mL (≈ 1.08 µM)
[9]
  MIC: 1 µg/mL (≈ 1.08 µM)
[10]
  MIC: 2 µg/mL (≈ 2.15 µM)
Streptococcus Group 9960
  MIC: 1 µg/mL (≈ 1.08 µM)
[11]
  MIC: 2 µg/mL (≈ 2.15 µM)
[12]
  MIC: 4 µg/mL (≈ 4.3 µM)
[13]
  MIC: 1 µg/mL (≈ 1.08 µM)

## CCC1OC(=O)CC(O)C(C)C(OC2OC(C)C(OC3CC(C)(O)C(O)C(C)O3)C(N(C)C)C2O)C(CC=O)CC(C)C(=O)C=CC(C)=CC1COC(=O)n1ccnc1 (stereo not shown) [Compound 22]
[1]
  MIC: 1 µg/mL (≈ 1.2 µM)
[3]
  MIC: 1 µg/mL (≈ 1.2 µM)
[4]
  MIC: 12.5 µg/mL (≈ 15 µM)
[5]
  MIC: 25 µg/mL (≈ 29.9 µM)
Mycoplasma synoviae
  MIC: 1.56 µg/mL (≈ 1.87 µM)
Mycoplasma hyorhinis
  MIC: 1.56 µg/mL (≈ 1.87 µM)
Staphylococcus aureus
  MIC: 6.25 µg/mL (≈ 7.48 µM)
Mycoplasma gallisepticum
  MIC: 3.12 µg/mL (≈ 3.73 µM)
Streptococcus sp. 80
  MIC: 1.56 µg/mL (≈ 1.87 µM)
[6]
  MIC: 0.25 µg/mL (≈ 0.299 µM)
[7]
  MIC: 1 µg/mL (≈ 1.2 µM)
[8]
  MIC: 0.5 µg/mL (≈ 0.598 µM)
[9]
  MIC: 0.5 µg/mL (≈ 0.598 µM)
[10]
  MIC: 8 µg/mL (≈ 9.57 µM)
Streptococcus Group 9960
  MIC: 0.5 µg/mL (≈ 0.598 µM)
[11]
  MIC: 16 µg/mL (≈ 19.1 µM)
[12]
  MIC: 0.5 µg/mL (≈ 0.598 µM)
[13]
  MIC: 0.5 µg/mL (≈ 0.598 µM)

## CCC1OC(=O)CC(O)C(C)C(OC2OC(C)C(OC3CC(C)(O)C(O)C(C)O3)C(N(C)C)C2O)C(CC=O)CC(C)C(=O)C=CC(C)=CC1COC(=O)NCCCO (stereo not shown) [Compound 26]
[1]
  MIC: 4 µg/mL (≈ 4.74 µM)
[2]
  MIC: 0.125 µg/mL (≈ 0.148 µM)
[3]
  MIC: 2 µg/mL (≈ 2.37 µM)
[4]
  MIC: 6.25 µg/mL (≈ 7.41 µM)
[5]
  MIC: 12.5 µg/mL (≈ 14.8 µM)
Mycoplasma synoviae
  MIC: 0.39 µg/mL (≈ 0.463 µM)
Mycoplasma hyorhinis
  MIC: 6.25 µg/mL (≈ 7.41 µM)
Staphylococcus aureus
  MIC: 1.56 µg/mL (≈ 1.85 µM)
Mycoplasma gallisepticum
  MIC: 0.78 µg/mL (≈ 0.925 µM)
Streptococcus sp. 80
  MIC: 0.39 µg/mL (≈ 0.463 µM)
[6]
  MIC: 0.25 µg/mL (≈ 0.297 µM)
[7]
  MIC: 2 µg/mL (≈ 2.37 µM)
[8]
  MIC: 4 µg/mL (≈ 4.74 µM)
[9]
  MIC: 1 µg/mL (≈ 1.19 µM)
Streptococcus Group 9960
  MIC: 2 µg/mL (≈ 2.37 µM)
[11]
  MIC: 16 µg/mL (≈ 19 µM)
[12]
  MIC: 2 µg/mL (≈ 2.37 µM)
[13]
  MIC: 1 µg/mL (≈ 1.19 µM)

## CCC1OC(=O)CC(O)C(C)C(OC2OC(C)C(OC3CC(C)(O)C(O)C(C)O3)C(N(C)C)C2OC(C)=O)C(CC=O)CC(C)C(=O)C=CC(C)=CC1COC(=O)NCc1ccccc1 (stereo not shown) [Compound 30]
[1]
  MIC: 0.5 µg/mL (≈ 0.545 µM)
[3]
  MIC: 1 µg/mL (≈ 1.09 µM)
[5]
  MIC: 12.5 µg/mL (≈ 13.6 µM)
Mycoplasma synoviae
  MIC: 0.78 µg/mL (≈ 0.851 µM)
Mycoplasma hyorhinis
  MIC: 1.56 µg/mL (≈ 1.7 µM)
Mycoplasma gallisepticum
  MIC: 0.39 µg/mL (≈ 0.425 µM)
Streptococcus sp. 80
  MIC: 0.78 µg/mL (≈ 0.851 µM)
[6]
  MIC: 0.5 µg/mL (≈ 0.545 µM)
[7]
  MIC: 0.5 µg/mL (≈ 0.545 µM)
[8]
  MIC: 0.5 µg/mL (≈ 0.545 µM)
[9]
  MIC: 0.5 µg/mL (≈ 0.545 µM)
[10]
  MIC: 4 µg/mL (≈ 4.36 µM)
Streptococcus Group 9960
  MIC: 0.5 µg/mL (≈ 0.545 µM)
[11]
  MIC: 8 µg/mL (≈ 8.72 µM)
[12]
  MIC: 0.5 µg/mL (≈ 0.545 µM)
[13]
  MIC: 0.5 µg/mL (≈ 0.545 µM)
